In PubChem BioAssay (NCI):
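Compound exposure: 48 hours, 5 concentrations, 96-well plates. TGI: total growth inhibition.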

Columns and labels:
Assay in all cases: NCI-60 cell line screen, 48 h
MDA-MB-435 = test system: MDA-MB-435
SK-MEL-2 melanoma = test system: SK-MEL-2 melanoma
RPMI-8226 leukemia = test system: RPMI-8226 leukemia
UACC-257 melanoma = test system: UACC-257 melanoma
MDA-N = test system: MDA-N
IGROV1 ovarian = test system: IGROV1 ovarian
HL-60(TB) leukemia = test system: HL-60(TB) leukemia
HOP-62 NSCLC = test system: HOP-62 NSCLC
SN12C renal = test system: SN12C renal
UO-31 renal = test system: UO-31 renal
OVCAR-5 ovarian = test system: OVCAR-5 ovarian
PC-3 prostate = test system: PC-3 prostate
786-0 renal = test system: 786-0 renal
SF-268 CNS = test system: SF-268 CNS
SW-620 colon = test system: SW-620 colon
ACHN renal = test system: ACHN renal
HS 578T breast = test system: HS 578T breast
COLO 205 colon = test system: COLO 205 colon
HOP-92 NSCLC = test system: HOP-92 NSCLC
HCT-116 colon = test system: HCT-116 colon
U251 CNS = test system: U251 CNS
K-562 leukemia = test system: K-562 leukemia
HCT-15 colon = test system: HCT-15 colon
OVCAR-8 ovarian = test system: OVCAR-8 ovarian
NCI-H522 lung = test system: NCI-H522 lung
NCI-H460 lung = test system: NCI-H460 lung
MALME-3M melanoma = test system: MALME-3M melanoma
M14 melanoma = test system: M14 melanoma
TK-10 renal = test system: TK-10 renal
KM12 colon = test system: KM12 colon
MOLT-4 leukemia = test system: MOLT-4 leukemia
MDA-MB-231 breast = test system: MDA-MB-231 breast
NCI-H226 lung = test system: NCI-H226 lung
OVCAR-4 ovarian = test system: OVCAR-4 ovarian
CCRF-CEM leukemia = test system: CCRF-CEM leukemia
SNB-75 CNS = test system: SNB-75 CNS
EKVX NSCLC = test system: EKVX NSCLC
A498 renal = test system: A498 renal
OVCAR-3 ovarian = test system: OVCAR-3 ovarian
HCC-2998 colon = test system: HCC-2998 colon
SK-MEL-5 melanoma = test system: SK-MEL-5 melanoma
DU-145 prostate = test system: DU-145 prostate
CAKI-1 renal = test system: CAKI-1 renal
SNB-19 CNS = test system: SNB-19 CNS
BT-549 breast = test system: BT-549 breast
HT29 colon = test system: HT29 colon
T-47D breast = test system: T-47D breast
NCI/ADR-RES ovarian = test system: NCI/ADR-RES ovarian
NCI-H23 lung = test system: NCI-H23 lung
SR leukemia = test system: SR leukemia
LOX IMVI melanoma = test system: LOX IMVI melanoma
UACC-62 melanoma = test system: UACC-62 melanoma
RXF 393 renal = test system: RXF 393 renal
SF-295 CNS = test system: SF-295 CNS
SK-OV-3 ovarian = test system: SK-OV-3 ovarian
SF-539 CNS = test system: SF-539 CNS
SK-MEL-28 melanoma = test system: SK-MEL-28 melanoma

CC(=O)OCCOCn1cnc2c(Cl)nc(Cl)nc21
TGI (MDA-MB-435): 33.5 µM
TGI (SK-MEL-2 melanoma): 55.6 µM
TGI (RPMI-8226 leukemia): 33.5 µM
TGI (UACC-257 melanoma): 36.8 µM
TGI (MDA-N): 32.9 µM
TGI (IGROV1 ovarian): 30.6 µM
TGI (HL-60(TB) leukemia): 6.21 µM
TGI (HOP-62 NSCLC): 36.4 µM
TGI (SN12C renal): 33.9 µM
TGI (UO-31 renal): 36.4 µM
TGI (OVCAR-5 ovarian): 36.9 µM
TGI (PC-3 prostate): 36.5 µM
TGI (786-0 renal): 58 µM
TGI (SF-268 CNS): 36.6 µM
TGI (SW-620 colon): 30.7 µM
TGI (ACHN renal): 30.6 µM
TGI (HS 578T breast): 40.4 µM
TGI (COLO 205 colon): 38.1 µM
TGI (HOP-92 NSCLC): 3.37 µM
TGI (HCT-116 colon): 32 µM
TGI (U251 CNS): 29.2 µM
TGI (K-562 leukemia): 5.43 µM
TGI (HCT-15 colon): 14.5 µM
TGI (OVCAR-8 ovarian): 44.2 µM
TGI (NCI-H522 lung): 4.07 µM
TGI (NCI-H460 lung): 35 µM
TGI (MALME-3M melanoma): 33.3 µM
TGI (M14 melanoma): 37.1 µM
TGI (TK-10 renal): > 100 µM
TGI (KM12 colon): 44.1 µM
TGI (MOLT-4 leukemia): 40 µM
TGI (MDA-MB-231 breast): 29 µM
TGI (NCI-H226 lung): 50.6 µM
TGI (OVCAR-4 ovarian): 37.5 µM
TGI (CCRF-CEM leukemia): 23.7 µM
TGI (SNB-75 CNS): 51.7 µM
TGI (EKVX NSCLC): 7.83 µM
TGI (A498 renal): 91.2 µM
TGI (OVCAR-3 ovarian): 27.2 µM
TGI (HCC-2998 colon): 25.6 µM
TGI (SK-MEL-5 melanoma): 33 µM
TGI (DU-145 prostate): 36.5 µM
TGI (CAKI-1 renal): 0.832 µM
TGI (SNB-19 CNS): > 100 µM
TGI (BT-549 breast): 36.4 µM
TGI (HT29 colon): 32.9 µM
TGI (T-47D breast): 25.6 µM
TGI (NCI/ADR-RES ovarian): 57.5 µM
TGI (NCI-H23 lung): 36.1 µM
TGI (SR leukemia): 16.1 µM
TGI (LOX IMVI melanoma): 15.8 µM
TGI (UACC-62 melanoma): 30.1 µM

N#Cc1c(-c2ccccc2)cc(Nc2cccc(C(F)(F)F)c2)n2c1nc1ccccc12
TGI (MDA-MB-435): 17.1 µM
TGI (RPMI-8226 leukemia): 6.74 µM
TGI (UACC-257 melanoma): 9.76 µM
TGI (MDA-N): 10.3 µM
TGI (HOP-62 NSCLC): 9.81 µM
TGI (SN12C renal): 4.34 µM
TGI (OVCAR-5 ovarian): 10.7 µM
TGI (786-0 renal): 6.57 µM
TGI (RXF 393 renal): 11.9 µM
TGI (SF-268 CNS): 11.5 µM
TGI (SF-295 CNS): 12.6 µM
TGI (SW-620 colon): 14.2 µM
TGI (ACHN renal): 11.1 µM
TGI (SK-OV-3 ovarian): 8.73 µM
TGI (COLO 205 colon): 2.39 µM
TGI (HOP-92 NSCLC): 0.769 µM
TGI (HCT-116 colon): 3.52 µM
TGI (U251 CNS): 10.3 µM
TGI (HCT-15 colon): 10.2 µM
TGI (OVCAR-8 ovarian): 10.3 µM
TGI (NCI-H522 lung): 1.37 µM
TGI (NCI-H460 lung): 17.7 µM
TGI (MALME-3M melanoma): 8.32 µM
TGI (TK-10 renal): 17.8 µM
TGI (KM12 colon): 30.5 µM
TGI (MOLT-4 leukemia): 41 µM
TGI (MDA-MB-231 breast): 9.85 µM
TGI (NCI-H226 lung): 4.74 µM
TGI (OVCAR-4 ovarian): 22.2 µM
TGI (SNB-75 CNS): 9.53 µM
TGI (EKVX NSCLC): 10 µM
TGI (A498 renal): 12.6 µM
TGI (SF-539 CNS): 5.06 µM
TGI (OVCAR-3 ovarian): 5.58 µM
TGI (SK-MEL-28 melanoma): 21.8 µM
TGI (SK-MEL-5 melanoma): 1.78 µM
TGI (DU-145 prostate): 19.7 µM
TGI (CAKI-1 renal): 13.1 µM
TGI (BT-549 breast): 14.1 µM
TGI (HT29 colon): 4.6 µM
TGI (T-47D breast): 21.1 µM
TGI (NCI/ADR-RES ovarian): 7.15 µM
TGI (NCI-H23 lung): 3.63 µM
TGI (LOX IMVI melanoma): 3.95 µM
